Assays:
[1] = molecular target: AgrA (AgrAC, C-terminal DNA binding domain) (Staphylococcus aureus, UniProt P0A0I7); test: EMSA with purified AgrAC and FAM-labeled […] bp DNA duplex; supported by AgrA-driven agr::P3 lux reporter in agr-null S. aureus
[2] = molecular target: T1, AgrA (Staphylococcus aureus, UniProt P0A0I7); test: AgrA-dependent agr::P3 lux reporter in agr-null S. aureus ([…]), positive control; format: cell-based
T1 construct: plasmid-encoded AgrA (pCM63) in S. aureus Δagr reporter strain AH3048
T1 sequence (P0A0I7 whole entry): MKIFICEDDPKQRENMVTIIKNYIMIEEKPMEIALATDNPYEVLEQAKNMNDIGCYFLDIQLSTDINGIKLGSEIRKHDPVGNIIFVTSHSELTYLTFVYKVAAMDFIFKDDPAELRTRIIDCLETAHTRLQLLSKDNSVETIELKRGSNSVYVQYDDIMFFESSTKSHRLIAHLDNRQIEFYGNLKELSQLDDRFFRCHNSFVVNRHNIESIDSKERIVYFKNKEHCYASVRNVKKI

Chain of AgrA (AgrAC, C-terminal DNA binding domain) (P0A0I7 137-238): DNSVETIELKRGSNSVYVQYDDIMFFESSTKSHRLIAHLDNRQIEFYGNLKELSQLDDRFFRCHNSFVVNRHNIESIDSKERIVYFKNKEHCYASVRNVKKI

## CC(C)c1ccc(S(=O)(=O)c2n[nH]n3c2nc(=O)c2ccccc23)cc1 [savirin, 3-(4-propan-2-ylphenyl) sulfonyl-1H-triazolo [1,5-a] quinazolin-5-one]
[1]
  IC50: 83 µM

## O=C(O)c1cc(-c2ccc(F)cc2F)ccc1O [diflunisal]
[2]
  AgrA-dependent agr::P3 lux reporter in agr-null S. aureus (1.56-100 μM), positiv: diflunisal and 4-phenoxyphenol, compounds published by others as inhibitors of AgrAc DNA binding ability
